Source: patent publication US10802012B2, “Optical cytometry to determine cell mass changes in response to a biologically active agent” (The Regents of the University of California, priority 2009, dated 2020)

Legend:
NIH3T3 cells [1] = test: Cell morphology in intensity images during cytochalasin treatment; format: cell-based, mouse; conditions: 1 μM, up to 45 minutes
Method: (§1) Cells were prepared for measurement as described above. A continuous infusion of fresh media into the sample chamber, warmed to 37 C and pre-saturated with 5%CO2, was maintained at all times. The rate of infusion was 5 μL/min, equivalent to exchanging the entire volume of the test chamber in 20 minutes. Cells were equilibrated under flow for 45 minutes before measurement. Flow was halted during each measurement cycle, which lasted approximately 200 seconds. The first, a media-only measurement was conducted at 1 hour, immediately followed by introduction of cytochalasin B into the infusing media. Initially, the cytochalasin B was dissolved in DMSO and diluted in DMEM to produce a stock concentration 1000× the working concentration (1 μM or 10 μM). At the appropriate time, the stock solution was introduced into the infusion media reservoir to produce the desired final concentration.

fibroblasts [2] = conditions: low doses (0.1-1 μM); cited from earlier work
fibroblasts [3] = conditions: low doses (0.1-1 μM); cited from earlier work; remark: listed apart in the source
fibroblasts [4] = conditions: low doses (0.1-1 μM); cited from earlier work; remark: listed apart in the source
NIH3T3 cells [5] = test: Mechanical imaging interferometry (MII) viscoelastic measurement of cells before and after cytochalasin B; format: cell-based, mouse
Method: The population measurements of the NIH 3T3 fibroblasts and the HEK 293T […] were conducted over several consecutive days. Both cell types were cultured at the same time on a series of poly-L-lysine coated 0.20×10 mm round glass coverslips, in 1×DMEM with 10% fetal bovine serum in a laboratory incubator under standard cell culture conditions. Preceding measurement, a single round coverslip containing cells would be removed from the culture dish and quickly placed in the microscope test chamber. Microreflectors would be added to media from the original culture dish, which would then be pipetted slowly onto the cells and the sample chamber sealed. Cells were allowed to equilibrate in the test chamber for 30 minutes before measurement. The average radius of the measured microreflectors was 3.79 μm, and the average applied force was 190 pN. The average cell height was 8.1 μm and the average maximum indentation depth per cell was 660 nm.
The three constants for a viscoelastic solid were determined for each measurement by fitting the time-dependent force-displacement curves of the microreflectors to the following equation (see, e.g. Cheng et al., (2005) Mechanics of Materials 37, 213-226):
[formula] Our measurements assumed Poisson's ratio for the cell, v=0.5. Curves were fitted using the Levenberg-Marquardt non-linear least squares procedure (Origin Labs). The z-statistic was used to compare the log-transformed sample means and determine p values. The Bartlett test was used to confirm homogeneity of the compared sample variances.
To remain within the semi-infinite layer assumptions of this model, we present fits only for observations where the minimum cell thickness at the location of the microreflector was 3 μm or greater. A majority of the measurements fit the model elastic constants E1 and E2 well, having a relative standard error of fit <25%. There was larger uncertainty in the viscosity factor, η, with only 30% of the fits having a relative standard error <25%.
as §1

[6] = NIH3T3 cells, 1 μM, matched individual cell basis
[7] = NIH3T3 cells, FIG. 6B, normal force applied for 100 seconds, before vs after treatment

SMILES: C=C1[C@@H](C)[C@H]2[C@H](Cc3ccccc3)NC(=O)[C@]23OC(=O)/C=C/[C@H](O)CCC[C@@H](C)C/C=C/[C@H]3[C@@H]1O [cytochalasin B]
- change in cell morphology (NIH3T3 cells [1]): only a slight change in cell morphology
- cell migration (fibroblasts [2]): inhibit cell migration
- change in Young's modulus by AFM indentation (fibroblasts [3]): minimal, if any, measurable change in Young's modulus
- changes in the morphology of fibroblasts (fibroblasts [4]): does not produce large changes in the morphology
- mean of the log-transformed distribution of E2 (delayed elastic constant) after treatment (NIH3T3 cells [5]; NIH3T3 cells (n=30), 1 μM, before treatment 2.30, p=0.04): 2.02
- mean of the log-transformed distribution of E1 (instantaneous elastic constant) after treatment (NIH3T3 cells [5]; NIH3T3 cells (n=30), 1 μM, before treatment 3.19, p=0.10): 2.92
- mean of the log-transformed viscous constant η after treatment (NIH3T3 cells [5]; NIH3T3 cells (n=30), 1 μM, before treatment 3.39, p=0.47): 3.36
- matched individual cells with E1 lower after treatment (NIH3T3 cells [5]; [6]): 10/13
- matched individual cells with E2 lower after treatment (NIH3T3 cells [5]; [6]): 7/10
- matched individual cells with viscosity η lower after treatment (NIH3T3 cells [5]; [6]): 6/11
- change in viscoelastic behavior, force-displacement curve of probe 1 (NIH3T3 cells [5]; [7]): appears to be unchanged
- change in viscoelastic behavior, force-displacement curve of probe 4 (NIH3T3 cells [5]; [7]): change in elastic rebound behavior
- change in viscoelastic behavior, force-displacement curves of probes 2 and 3 (NIH3T3 cells [5]; [7]): clear decrease in stiffness
- elasticity of treated cells (NIH3T3 cells [5]; NIH3T3 cells, low dose (1 μM)): treated cells were less elastic
